Here are results for one molecule from patent publication US11572590B2, “Methods for evaluating tumor cell spheroids using 3D microfluidic cell culture device” (Dana-Farber Cancer Institute, Inc., priority 2017, dated 2023).

What is called inhibition is the relative decrease from the control value, in per cent.

Holding throughout (assay): SelectScreen Kinase Profiling, single point inhibition and IC50 for off-target kinases
Holding throughout (type): biochemical

Assay [1] deals with off-target kinases (Homo sapiens, UniProt Q15746). To be noted: MYLK (MLCK), LanthaScreen Binding. (In general: In TR-FRET formats the signal depends on donor and acceptor labels being close together.)
Chain of off-target kinases (Homo sapiens, UniProt Q15746) (Q15746 whole entry): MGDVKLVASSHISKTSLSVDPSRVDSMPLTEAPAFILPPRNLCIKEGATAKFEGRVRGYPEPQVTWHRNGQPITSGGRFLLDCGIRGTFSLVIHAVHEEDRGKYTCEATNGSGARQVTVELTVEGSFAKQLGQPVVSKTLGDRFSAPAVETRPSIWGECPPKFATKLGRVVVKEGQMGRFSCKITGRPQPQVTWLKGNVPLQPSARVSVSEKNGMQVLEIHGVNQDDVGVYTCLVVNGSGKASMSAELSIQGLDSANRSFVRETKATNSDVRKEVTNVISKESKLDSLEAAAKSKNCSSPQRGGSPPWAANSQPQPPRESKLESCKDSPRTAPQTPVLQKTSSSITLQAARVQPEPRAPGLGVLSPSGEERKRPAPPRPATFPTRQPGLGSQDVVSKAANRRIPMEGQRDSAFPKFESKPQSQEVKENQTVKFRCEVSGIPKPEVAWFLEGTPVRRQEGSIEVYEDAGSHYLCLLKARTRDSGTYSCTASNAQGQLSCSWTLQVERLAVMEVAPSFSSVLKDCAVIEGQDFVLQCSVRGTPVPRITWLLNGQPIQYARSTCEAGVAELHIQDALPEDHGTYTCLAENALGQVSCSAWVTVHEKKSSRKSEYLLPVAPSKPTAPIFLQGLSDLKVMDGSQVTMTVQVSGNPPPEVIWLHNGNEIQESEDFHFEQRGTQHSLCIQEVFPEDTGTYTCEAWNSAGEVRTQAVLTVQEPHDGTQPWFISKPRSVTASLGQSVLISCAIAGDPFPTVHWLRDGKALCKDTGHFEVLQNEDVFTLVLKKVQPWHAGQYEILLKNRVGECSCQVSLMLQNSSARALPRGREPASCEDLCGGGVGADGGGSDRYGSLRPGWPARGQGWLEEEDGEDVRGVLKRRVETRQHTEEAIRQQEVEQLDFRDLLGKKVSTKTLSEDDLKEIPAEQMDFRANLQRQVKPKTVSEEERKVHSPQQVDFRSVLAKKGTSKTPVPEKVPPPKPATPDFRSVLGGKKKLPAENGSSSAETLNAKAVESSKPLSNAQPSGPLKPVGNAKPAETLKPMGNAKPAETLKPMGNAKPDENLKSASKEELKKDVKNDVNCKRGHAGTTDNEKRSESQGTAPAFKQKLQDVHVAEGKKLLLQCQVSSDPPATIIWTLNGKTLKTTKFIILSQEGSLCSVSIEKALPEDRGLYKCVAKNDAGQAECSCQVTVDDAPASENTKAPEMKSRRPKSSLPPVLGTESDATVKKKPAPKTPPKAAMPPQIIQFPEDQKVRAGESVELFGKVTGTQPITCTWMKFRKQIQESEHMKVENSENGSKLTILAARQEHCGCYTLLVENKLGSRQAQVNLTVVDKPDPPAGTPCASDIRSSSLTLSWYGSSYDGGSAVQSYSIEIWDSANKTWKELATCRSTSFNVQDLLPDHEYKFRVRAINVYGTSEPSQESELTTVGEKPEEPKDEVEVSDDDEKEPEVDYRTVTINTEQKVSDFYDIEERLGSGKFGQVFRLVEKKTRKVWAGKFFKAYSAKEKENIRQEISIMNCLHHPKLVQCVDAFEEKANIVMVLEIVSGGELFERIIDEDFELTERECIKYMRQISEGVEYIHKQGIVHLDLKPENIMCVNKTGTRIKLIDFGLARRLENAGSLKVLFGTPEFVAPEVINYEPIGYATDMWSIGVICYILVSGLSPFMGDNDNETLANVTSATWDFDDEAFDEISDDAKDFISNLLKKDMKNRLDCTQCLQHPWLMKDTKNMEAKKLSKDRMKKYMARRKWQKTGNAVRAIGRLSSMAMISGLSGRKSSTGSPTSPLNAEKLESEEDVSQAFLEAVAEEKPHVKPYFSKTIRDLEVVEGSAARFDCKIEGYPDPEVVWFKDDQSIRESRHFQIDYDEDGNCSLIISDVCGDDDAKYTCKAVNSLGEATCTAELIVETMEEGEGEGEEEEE
In assay [2] the target is off-target kinases (Homo sapiens, UniProt Q9Y463). To be noted: DYRK1B, ZLYTE, ATP Km app.
Chain of off-target kinases (Homo sapiens, UniProt Q9Y463) (Q9Y463 whole entry): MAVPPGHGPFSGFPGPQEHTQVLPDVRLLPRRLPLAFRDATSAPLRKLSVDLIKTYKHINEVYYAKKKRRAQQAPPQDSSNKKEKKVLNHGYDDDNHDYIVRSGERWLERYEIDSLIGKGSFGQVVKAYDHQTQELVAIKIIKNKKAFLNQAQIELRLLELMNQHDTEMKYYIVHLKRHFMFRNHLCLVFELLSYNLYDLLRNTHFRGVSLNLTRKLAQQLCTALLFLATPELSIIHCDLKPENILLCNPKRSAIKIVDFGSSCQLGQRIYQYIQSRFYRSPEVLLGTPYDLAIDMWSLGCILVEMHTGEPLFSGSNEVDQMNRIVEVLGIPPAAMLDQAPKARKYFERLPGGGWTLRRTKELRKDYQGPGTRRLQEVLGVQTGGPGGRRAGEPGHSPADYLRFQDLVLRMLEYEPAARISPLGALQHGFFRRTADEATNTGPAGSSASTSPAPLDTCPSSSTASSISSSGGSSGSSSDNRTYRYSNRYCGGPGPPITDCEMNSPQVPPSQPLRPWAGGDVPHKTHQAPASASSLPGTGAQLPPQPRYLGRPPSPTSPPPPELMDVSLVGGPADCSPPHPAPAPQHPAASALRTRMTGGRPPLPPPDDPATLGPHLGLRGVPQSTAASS
Assay [3] deals with off-target kinases (Homo sapiens, UniProt P42336). To be noted: PIK3CA/PIK3R1 (p110 alpha/p85 alpha); Cmpd1 1000 μM; ATP Km app; Adapta.
Chain of off-target kinases (Homo sapiens, UniProt P42336) (P42336 whole entry): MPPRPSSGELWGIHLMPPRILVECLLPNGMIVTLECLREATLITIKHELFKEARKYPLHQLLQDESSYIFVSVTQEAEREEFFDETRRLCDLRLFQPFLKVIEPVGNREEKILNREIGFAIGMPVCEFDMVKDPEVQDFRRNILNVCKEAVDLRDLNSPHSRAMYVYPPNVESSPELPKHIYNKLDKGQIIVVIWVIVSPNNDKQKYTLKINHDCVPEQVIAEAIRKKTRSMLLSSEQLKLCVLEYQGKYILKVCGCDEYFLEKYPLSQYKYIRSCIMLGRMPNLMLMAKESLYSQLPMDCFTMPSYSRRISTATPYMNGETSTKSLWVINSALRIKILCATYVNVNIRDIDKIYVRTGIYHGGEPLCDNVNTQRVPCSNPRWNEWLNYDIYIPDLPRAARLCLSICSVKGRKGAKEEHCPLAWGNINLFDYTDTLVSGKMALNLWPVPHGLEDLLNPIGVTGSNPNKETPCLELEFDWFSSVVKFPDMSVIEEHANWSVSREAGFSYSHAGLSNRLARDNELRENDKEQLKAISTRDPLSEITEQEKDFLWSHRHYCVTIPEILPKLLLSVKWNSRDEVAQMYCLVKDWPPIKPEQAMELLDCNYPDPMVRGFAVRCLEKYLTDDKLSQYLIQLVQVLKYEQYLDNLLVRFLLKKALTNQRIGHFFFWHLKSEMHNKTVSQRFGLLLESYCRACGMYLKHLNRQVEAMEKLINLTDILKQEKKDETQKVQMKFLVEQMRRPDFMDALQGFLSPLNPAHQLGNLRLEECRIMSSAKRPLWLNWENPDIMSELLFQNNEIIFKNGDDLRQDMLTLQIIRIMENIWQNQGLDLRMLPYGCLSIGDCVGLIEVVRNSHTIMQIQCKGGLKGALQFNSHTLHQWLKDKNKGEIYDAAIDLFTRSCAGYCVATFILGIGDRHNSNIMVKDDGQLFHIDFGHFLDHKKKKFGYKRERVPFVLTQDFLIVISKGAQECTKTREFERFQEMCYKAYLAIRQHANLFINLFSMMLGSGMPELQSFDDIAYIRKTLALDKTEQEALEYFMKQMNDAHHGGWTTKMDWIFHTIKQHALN
Assay [4] concerns the target T1, off-target kinases (Homo sapiens, UniProt Q12851).
T1 sequence (Q12851 1-820): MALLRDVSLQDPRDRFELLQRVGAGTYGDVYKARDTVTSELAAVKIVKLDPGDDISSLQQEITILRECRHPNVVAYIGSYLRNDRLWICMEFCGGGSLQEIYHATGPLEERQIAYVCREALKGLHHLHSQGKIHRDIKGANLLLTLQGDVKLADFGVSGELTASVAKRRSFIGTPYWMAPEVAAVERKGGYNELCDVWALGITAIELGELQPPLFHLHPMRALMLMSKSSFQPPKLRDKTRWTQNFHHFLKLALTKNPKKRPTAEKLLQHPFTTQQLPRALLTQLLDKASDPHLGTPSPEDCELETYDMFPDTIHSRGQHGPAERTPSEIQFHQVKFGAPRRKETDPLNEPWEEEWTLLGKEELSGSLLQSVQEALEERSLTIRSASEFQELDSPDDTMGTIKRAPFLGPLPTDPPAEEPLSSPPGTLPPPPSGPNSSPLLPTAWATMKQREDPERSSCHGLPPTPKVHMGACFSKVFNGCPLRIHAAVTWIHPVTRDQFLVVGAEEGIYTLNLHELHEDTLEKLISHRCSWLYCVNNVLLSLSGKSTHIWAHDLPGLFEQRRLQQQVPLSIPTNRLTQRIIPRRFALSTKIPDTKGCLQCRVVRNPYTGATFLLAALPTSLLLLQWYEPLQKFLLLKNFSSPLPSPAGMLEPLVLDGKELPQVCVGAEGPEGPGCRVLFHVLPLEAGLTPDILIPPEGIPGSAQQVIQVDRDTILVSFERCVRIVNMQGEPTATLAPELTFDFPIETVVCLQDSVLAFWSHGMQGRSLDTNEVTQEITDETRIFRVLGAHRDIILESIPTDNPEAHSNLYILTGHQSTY
The note with it: MAP4K2 (GCK), ZLYTE, ATP Km app.

Read-outs that look alike come from different tables or passages of the source.

As for `N#Cc1cc(-c2ncnc(Nc3ccc(N4CCN(C5COC5)CC4)cc3)n2)ccc1OC1CCOCC1` [Compound 1, 5-(4-((4-(4-(oxetan-3-yl)piperazin-1-yl)phenyl)amino)-1,3,5-triazin-2-yl)-2-((tetrahydro-2H-pyran-4-yl)oxy)benzonitrile], the inhibition was determined as 5% on off-target kinases [1] (read-out: % Inhibition 1); 3% on off-target kinases [1] (read-out: % Inhibition 2); 4% on off-target kinases [1] (read-out: % Inhibition Avg); 14% on off-target kinases [2] (read-out: % Inhibition 1); 9% at off-target kinases [2] (read-out: % Inhibition 2); 11% on off-target kinases [2] (read-out: % Inhibition Avg). Besides, the inhibition on off-target kinases [4] (read-out: % Inhibition 1) is 6%; on off-target kinases [4] (read-out: % Inhibition 2) it was -2%; at off-target kinases [4] (read-out: % Inhibition Avg) it was 2%. In addition, the “% Inhibition 1” value on off-target kinases [3] is given as −5%. Moreover, at off-target kinases [3], the “% Inhibition 2” value is −4%. In addition, the “% Inhibition Avg” value on off-target kinases [3] was −5%.
